Laboratory results as given in patent EP4144838A1, “ORGANISMS PRODUCING LESS CROTONIC ACID” (Global Bioenergies, priority 2021, dated 2023).

Tests used:
TaFdcV = experiment: Cycloadduct formation with TaFdcV followed by UV-Vis spectroscopy; assay type: binding, Trichoderma atroviride; conditions: for adduct formation / binding, reversibility after desalting: UV-Vis spectrum before and after a desalting step
[1] = target: E. coli deoxyribose-phosphate aldolase (Escherichia coli, UniProt P0A6L0); conditions: Racker et al. 1951; Jennewein et al. 2006; cited from earlier work
TaFdc = experiment: Adduct formation with TaFdc wild-type followed by UV-Vis spectroscopy; conditions: UV-Vis spectrum before and after a desalting step

Chain of E. coli deoxyribose-phosphate aldolase (P0A6L0 whole entry): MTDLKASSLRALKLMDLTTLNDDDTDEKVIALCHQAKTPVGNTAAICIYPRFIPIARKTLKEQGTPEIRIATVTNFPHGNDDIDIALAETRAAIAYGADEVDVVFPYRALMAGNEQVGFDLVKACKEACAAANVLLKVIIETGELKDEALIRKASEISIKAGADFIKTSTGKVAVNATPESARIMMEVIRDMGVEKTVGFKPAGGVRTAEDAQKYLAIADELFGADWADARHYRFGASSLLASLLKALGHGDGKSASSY

CC#CC(=O)O [2-butynoic acid]
adduct formation / binding, reversibility after desalting (TaFdcV): a covalent inhibitory adduct is formed

CCC=O [propionaldehyde]
inhibition of E. coli deoxyribose-phosphate aldolase [1]: inhibit

O=CCCl [chloroacetaldehyde]
inhibition of E. coli deoxyribose-phosphate aldolase [1]: efficiently inhibit

pentenoic acid
adduct formation / binding, reversibility after desalting (TaFdcV): irreversibly binds | adduct formation / binding, reversibility after desalting (TaFdc): irreversibly binds

CCCCCCCCO [octanol]
inhibition of E. coli deoxyribose-phosphate aldolase [1]: inhibit

NO [hydroxylamine]
inhibition of E. coli deoxyribose-phosphate aldolase [1]: inhibit

OC(O)C(Cl)(Cl)Cl [chloral hydrate]
inhibition of E. coli deoxyribose-phosphate aldolase [1]: inhibit

CCC/C=C/C(=O)O [hexenoic acid, trans-2-hexenoic acid]
adduct formation / binding, reversibility after desalting (TaFdcV): irreversibly binds | adduct formation / binding, reversibility after desalting (TaFdc): irreversibly binds

C/C=C/C(=O)O [crotonic acid]
inhibition of the enzyme ferulic acid decarboxylase (FDC) (TaFdcV; FDC variant evolved to decarboxylate 3-methylcrotonic acid, FIG.2): irreversible inhibitor | adduct formation / binding, reversibility after desalting (TaFdcV): a covalent inhibitory adduct is formed
